# Source: patent publication US11697648B2, “Fused pyrimidine pyridinone compounds as JAK inhibitors” (THERAVANCE BIOPHARMA R&D IP, LLC, priority 2019, dated 2023)
# Key:
# [1] = tested on: IL-2 stimulated STAT5 phosphorylation in Tall-1 human T cell line (JAK3); experiment: Cellular JAK3 potency assay: inhibition of IL-2 stimulated pSTAT5 in Tall-1 T cells; assay type: cell-based; details: IL-2 stimulated pSTAT5, Tall-1 T cells
# Outline: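 AlphaLISA SureFire Ultra measures STAT5 Tyr694/699 phosphorylation in lysed Tall-1 human T cells. Cells were exposed to compound for 1 h at 37 °C before a 30 min IL-2 challenge (300 ng/ml final). Values are pIC50 means with standard deviation from signal-versus-concentration curves.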
# JAK3 = JAK3 (Homo sapiens (Human), UniProt P52333); experiment: Biochemical JAK3 kinase assay (LanthaScreen); details: for JAK3 (pKi)-JAK1 (pKi): selectivity JAK3 over JAK1, difference of pKi
# Outline: (§1)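 GST-JAK + GFP-STAT1 peptide, HEPES pH 7.5/MgCl2/EGTA/Brij-35 buffer; cpd preincubation 1 h RT; ATP start, 1 h RT; stop with 10 mM EDTA + 2 nM Tb-anti-pSTAT1; TR-FRET 520/495. 4-parameter IC50 → pKi (Cheng-Prusoff).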
# JAK1 = JAK1 (Homo sapiens (Human), UniProt P23458); experiment: Biochemical JAK1 kinase assay (LanthaScreen)
# Outline: as §1
# Tyk2 = Tyk2 (Homo sapiens (Human), UniProt P29597); experiment: Biochemical Tyk2 kinase assay (LanthaScreen)
# Description: (§2) Assay 1: Biochemical JAK and Tyk2 Kinase Assays
# (§3) A panel of four LanthaScreen JAK biochemical assays (JAK1, 2, 3 and Tyk2) were carried in a common kinase reaction buffer (50 mM HEPES, pH 7.5, 0.01% Brij-35, 10 mM MgCl2, and 1 mM EGTA). Recombinant GST-tagged JAK enzymes and a GFP-tagged STAT1 peptide substrate were obtained from Life Technologies.
# (§4) Serially or discretely diluted compounds were pre-incubated with each of the four JAK enzymes and the substrate in white 384-well microplates (Corning) at ambient temperature for 1 h. ATP was subsequently added to initiate the kinase reactions in 10 μL total volume, with 1% DMSO. […] Kinase reactions were allowed to proceed for 1 hour at ambient temperature before a 10 μL preparation of EDTA (10 mM final concentration) and Tb-anti-pSTAT1 (pTyr701) antibody (Life Technologies, 2 nM final concentration) in TR-FRET dilution buffer (Life Technologies) was added. The plates were allowed to incubate at ambient temperature for 1 h before being read on the EnVision reader (Perkin Elmer). Emission ratio signals (520 nm/495 nm) were recorded and utilized to calculate the percent inhibition values based on DMSO and background controls.
# (§5) For dose-response analysis, percent inhibition data were plotted vs. compound concentrations, and IC50 values were determined from a 4-parameter robust fit model with the Prism software (GraphPad Software). Results were expressed as pIC50 (negative logarithm of IC50) and subsequently converted to pKi (negative logarithm of dissociation constant, Ki) using the Cheng-Prusoff equation.
# JAK2 = JAK2 (Homo sapiens (Human), UniProt O60674); experiment: Biochemical JAK2 kinase assay (LanthaScreen)
# Description: as §2, §3, §4, §5
# Sequence of JAK3 (P52333 whole entry): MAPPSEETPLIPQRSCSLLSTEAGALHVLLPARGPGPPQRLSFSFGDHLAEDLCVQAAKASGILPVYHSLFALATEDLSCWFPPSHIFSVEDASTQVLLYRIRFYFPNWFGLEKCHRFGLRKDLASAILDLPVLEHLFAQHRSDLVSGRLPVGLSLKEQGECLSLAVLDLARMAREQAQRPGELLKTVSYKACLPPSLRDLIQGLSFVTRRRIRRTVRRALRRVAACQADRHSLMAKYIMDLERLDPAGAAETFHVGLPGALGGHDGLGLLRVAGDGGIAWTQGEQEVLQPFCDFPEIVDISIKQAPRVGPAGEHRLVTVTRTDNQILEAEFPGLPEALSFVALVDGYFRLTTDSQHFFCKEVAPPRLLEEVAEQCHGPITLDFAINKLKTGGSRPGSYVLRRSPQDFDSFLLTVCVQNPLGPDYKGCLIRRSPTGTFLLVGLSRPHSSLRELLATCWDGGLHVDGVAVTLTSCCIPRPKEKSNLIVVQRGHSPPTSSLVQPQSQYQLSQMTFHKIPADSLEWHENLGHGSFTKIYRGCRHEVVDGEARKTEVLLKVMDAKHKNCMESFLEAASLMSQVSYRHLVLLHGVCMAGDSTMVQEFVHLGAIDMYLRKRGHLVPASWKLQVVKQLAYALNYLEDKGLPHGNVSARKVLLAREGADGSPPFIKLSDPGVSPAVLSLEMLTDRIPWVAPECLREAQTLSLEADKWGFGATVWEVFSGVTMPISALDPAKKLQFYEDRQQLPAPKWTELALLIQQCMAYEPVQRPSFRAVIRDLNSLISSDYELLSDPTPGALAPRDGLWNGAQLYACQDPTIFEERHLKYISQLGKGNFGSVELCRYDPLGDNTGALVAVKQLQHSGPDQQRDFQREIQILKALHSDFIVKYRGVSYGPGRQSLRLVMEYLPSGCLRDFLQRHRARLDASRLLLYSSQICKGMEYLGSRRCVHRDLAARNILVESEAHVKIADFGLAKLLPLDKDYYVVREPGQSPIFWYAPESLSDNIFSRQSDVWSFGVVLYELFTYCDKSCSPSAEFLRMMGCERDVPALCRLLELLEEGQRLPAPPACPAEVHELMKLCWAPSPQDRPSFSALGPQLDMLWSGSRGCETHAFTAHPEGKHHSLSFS
# Sequence of JAK2 (O60674 whole entry): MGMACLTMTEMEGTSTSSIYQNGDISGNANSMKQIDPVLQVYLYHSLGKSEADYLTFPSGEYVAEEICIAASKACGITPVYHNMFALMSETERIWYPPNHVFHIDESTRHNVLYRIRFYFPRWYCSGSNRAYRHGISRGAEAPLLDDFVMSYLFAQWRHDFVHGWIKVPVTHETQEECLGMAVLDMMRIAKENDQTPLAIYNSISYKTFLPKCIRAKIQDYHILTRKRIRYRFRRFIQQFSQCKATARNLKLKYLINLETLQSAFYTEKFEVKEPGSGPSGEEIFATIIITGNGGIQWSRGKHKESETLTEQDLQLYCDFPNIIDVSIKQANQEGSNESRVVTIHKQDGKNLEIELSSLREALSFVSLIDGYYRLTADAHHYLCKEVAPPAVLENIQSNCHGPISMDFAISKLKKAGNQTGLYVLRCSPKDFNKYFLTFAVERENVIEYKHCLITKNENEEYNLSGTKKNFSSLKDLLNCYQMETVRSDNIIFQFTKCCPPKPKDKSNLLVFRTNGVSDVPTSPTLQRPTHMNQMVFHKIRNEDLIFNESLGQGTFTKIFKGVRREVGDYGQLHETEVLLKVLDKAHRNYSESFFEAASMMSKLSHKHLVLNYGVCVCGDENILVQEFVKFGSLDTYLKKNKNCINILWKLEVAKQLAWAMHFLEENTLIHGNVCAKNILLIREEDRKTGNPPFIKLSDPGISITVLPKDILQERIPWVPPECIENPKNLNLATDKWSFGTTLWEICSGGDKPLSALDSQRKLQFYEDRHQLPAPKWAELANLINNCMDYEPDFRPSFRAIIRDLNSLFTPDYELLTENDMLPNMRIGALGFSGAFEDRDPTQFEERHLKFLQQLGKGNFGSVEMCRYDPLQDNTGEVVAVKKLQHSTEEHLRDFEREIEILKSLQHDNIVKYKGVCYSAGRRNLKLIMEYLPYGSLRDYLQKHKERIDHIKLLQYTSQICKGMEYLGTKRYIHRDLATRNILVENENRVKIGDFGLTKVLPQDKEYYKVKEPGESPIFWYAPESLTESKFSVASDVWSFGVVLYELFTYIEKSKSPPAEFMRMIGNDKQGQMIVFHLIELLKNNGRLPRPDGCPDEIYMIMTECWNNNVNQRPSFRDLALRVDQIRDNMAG
# Sequence of Tyk2 (P29597 whole entry): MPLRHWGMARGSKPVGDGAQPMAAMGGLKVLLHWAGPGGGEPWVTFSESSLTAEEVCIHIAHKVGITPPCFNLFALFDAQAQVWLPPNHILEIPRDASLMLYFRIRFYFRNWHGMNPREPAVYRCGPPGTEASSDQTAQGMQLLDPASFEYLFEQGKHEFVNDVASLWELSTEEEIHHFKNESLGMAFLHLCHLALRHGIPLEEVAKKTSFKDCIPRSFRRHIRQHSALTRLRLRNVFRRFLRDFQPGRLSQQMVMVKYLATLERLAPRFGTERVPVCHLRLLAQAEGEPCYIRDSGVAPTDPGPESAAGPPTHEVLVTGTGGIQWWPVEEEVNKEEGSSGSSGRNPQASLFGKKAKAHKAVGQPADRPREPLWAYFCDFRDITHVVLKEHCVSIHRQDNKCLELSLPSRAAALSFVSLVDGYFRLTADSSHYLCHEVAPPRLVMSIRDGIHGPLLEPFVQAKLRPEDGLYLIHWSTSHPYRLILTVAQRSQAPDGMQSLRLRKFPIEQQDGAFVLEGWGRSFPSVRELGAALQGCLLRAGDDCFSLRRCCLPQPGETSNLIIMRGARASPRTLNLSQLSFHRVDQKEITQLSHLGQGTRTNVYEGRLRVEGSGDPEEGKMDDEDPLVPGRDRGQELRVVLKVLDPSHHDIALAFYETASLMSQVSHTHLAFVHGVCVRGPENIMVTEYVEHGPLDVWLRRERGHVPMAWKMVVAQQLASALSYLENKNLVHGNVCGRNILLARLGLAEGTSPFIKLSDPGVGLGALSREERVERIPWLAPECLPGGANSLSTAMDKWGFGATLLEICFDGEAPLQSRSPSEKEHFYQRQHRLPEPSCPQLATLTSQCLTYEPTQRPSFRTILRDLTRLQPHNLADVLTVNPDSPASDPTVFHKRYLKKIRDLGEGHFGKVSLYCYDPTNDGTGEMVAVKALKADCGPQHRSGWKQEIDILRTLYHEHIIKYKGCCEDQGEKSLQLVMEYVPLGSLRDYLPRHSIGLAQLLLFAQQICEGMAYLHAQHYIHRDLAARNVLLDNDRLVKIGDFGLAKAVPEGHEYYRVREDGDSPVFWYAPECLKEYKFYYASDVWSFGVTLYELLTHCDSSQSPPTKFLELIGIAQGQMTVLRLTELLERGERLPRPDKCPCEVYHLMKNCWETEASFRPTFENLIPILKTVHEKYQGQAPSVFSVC
# Sequence of JAK1 (P23458 whole entry): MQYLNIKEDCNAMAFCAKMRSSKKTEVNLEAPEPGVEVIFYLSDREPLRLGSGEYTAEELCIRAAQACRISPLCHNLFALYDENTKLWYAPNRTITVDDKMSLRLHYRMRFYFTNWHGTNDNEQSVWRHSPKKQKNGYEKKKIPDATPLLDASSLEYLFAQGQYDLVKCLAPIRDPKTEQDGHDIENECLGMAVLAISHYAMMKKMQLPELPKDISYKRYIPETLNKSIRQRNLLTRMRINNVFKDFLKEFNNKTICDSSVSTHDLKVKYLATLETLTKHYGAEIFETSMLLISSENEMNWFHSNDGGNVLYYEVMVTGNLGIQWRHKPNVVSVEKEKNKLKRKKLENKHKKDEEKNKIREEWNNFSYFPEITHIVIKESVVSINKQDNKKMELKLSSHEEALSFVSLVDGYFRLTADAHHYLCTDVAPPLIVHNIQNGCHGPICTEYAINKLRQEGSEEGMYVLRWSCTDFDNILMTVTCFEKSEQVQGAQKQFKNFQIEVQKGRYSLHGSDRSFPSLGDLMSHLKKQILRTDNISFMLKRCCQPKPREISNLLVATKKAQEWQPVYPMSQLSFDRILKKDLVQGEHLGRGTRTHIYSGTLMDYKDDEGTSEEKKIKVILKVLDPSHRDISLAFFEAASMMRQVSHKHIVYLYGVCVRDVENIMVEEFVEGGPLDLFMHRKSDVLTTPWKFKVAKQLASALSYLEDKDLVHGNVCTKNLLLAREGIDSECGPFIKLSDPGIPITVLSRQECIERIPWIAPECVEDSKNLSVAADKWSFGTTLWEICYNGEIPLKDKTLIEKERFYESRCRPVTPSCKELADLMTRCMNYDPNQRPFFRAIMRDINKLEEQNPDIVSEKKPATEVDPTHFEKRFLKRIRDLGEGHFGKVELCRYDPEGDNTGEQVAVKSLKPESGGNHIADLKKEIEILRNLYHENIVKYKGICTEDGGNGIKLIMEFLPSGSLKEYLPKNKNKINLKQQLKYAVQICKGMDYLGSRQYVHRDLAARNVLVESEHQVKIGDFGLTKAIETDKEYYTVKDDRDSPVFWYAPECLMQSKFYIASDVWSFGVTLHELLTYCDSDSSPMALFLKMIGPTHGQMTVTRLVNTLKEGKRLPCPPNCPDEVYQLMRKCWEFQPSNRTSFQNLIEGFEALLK
Structure (SMILES),Tall-1 (pIC50) [1],JAK 3 (pKi) (JAK3),JAK3 (pKi)-JAK1 (pKi) (JAK3),JAK 1 (pKi) (JAK1),Tyk 2 (pKi) (Tyk2),JAK 2 (pKi) (JAK2)
C=CC(=O)N1CC(CCn2c(=O)ccc3cnc(Nc4ccc(N5CCSCC5)c(F)c4)nc32)C1 [Example 53],B (B represents a pC50 value between 6.7 (included) and 7.5 (IC50 between 200 nM and 32 nM)),B (B represents pKi value between 9 and 10 (Ki between 1 nM and 0.1 nM)),A (A represents a value of 3 or above),E (E represents a pKi value of 7 or below (Ki of 100 nM or above)),E (E represents a pKi value of 7 or below (Ki of 100 nM or above)),E (E represents a pKi value of 7 or below (Ki of 100 nM or above))
C=CC(=O)N1CC(CCn2c(=O)ccc3cnc(Nc4cnn(CCOCC)c4)nc32)C1 [Example 56],C (C represents a pIC50 value between 6 and 6.7 (IC50 between 1 μM and 200 nM)),B (B represents pKi value between 9 and 10 (Ki between 1 nM and 0.1 nM)),A (A represents a value of 3 or above),E (E represents a pKi value of 7 or below (Ki of 100 nM or above)),E (E represents a pKi value of 7 or below (Ki of 100 nM or above)),E (E represents a pKi value of 7 or below (Ki of 100 nM or above))
C=CC(=O)N1CC(CCn2c(=O)ccc3cnc(Nc4cnn(CC(C)(C)O)c4)nc32)C1 [Example 57],C (C represents a pIC50 value between 6 and 6.7 (IC50 between 1 μM and 200 nM)),B (B represents pKi value between 9 and 10 (Ki between 1 nM and 0.1 nM)),A (A represents a value of 3 or above),E (E represents a pKi value of 7 or below (Ki of 100 nM or above)),E (E represents a pKi value of 7 or below (Ki of 100 nM or above)),E (E represents a pKi value of 7 or below (Ki of 100 nM or above))
C=CC(=O)N1CC(CCn2c(=O)ccc3cnc(Nc4cnn(C(C)(C)COC)c4)nc32)C1 [Example 58],B (B represents a pC50 value between 6.7 (included) and 7.5 (IC50 between 200 nM and 32 nM)),B (B represents pKi value between 9 and 10 (Ki between 1 nM and 0.1 nM)),A (A represents a value of 3 or above),E (E represents a pKi value of 7 or below (Ki of 100 nM or above)),E (E represents a pKi value of 7 or below (Ki of 100 nM or above)),E (E represents a pKi value of 7 or below (Ki of 100 nM or above))
C=CC(=O)N1CC(CCn2c(=O)ccc3cnc(Nc4ccc5[nH]c(=O)oc5c4)nc32)C1 [Example 59],C (C represents a pIC50 value between 6 and 6.7 (IC50 between 1 μM and 200 nM)),B (B represents pKi value between 9 and 10 (Ki between 1 nM and 0.1 nM)),A (A represents a value of 3 or above),E (E represents a pKi value of 7 or below (Ki of 100 nM or above)),E (E represents a pKi value of 7 or below (Ki of 100 nM or above)),E (E represents a pKi value of 7 or below (Ki of 100 nM or above))
C=CC(=O)N1CC(CCn2c(=O)ccc3cnc(Nc4cccc(C(=O)N5CCCCC5)c4)nc32)C1 [Example 64],C (C represents a pIC50 value between 6 and 6.7 (IC50 between 1 μM and 200 nM)),B (B represents pKi value between 9 and 10 (Ki between 1 nM and 0.1 nM)),A (A represents a value of 3 or above),E (E represents a pKi value of 7 or below (Ki of 100 nM or above)),E (E represents a pKi value of 7 or below (Ki of 100 nM or above)),E (E represents a pKi value of 7 or below (Ki of 100 nM or above))
C=CC(=O)N1CC(CCn2c(=O)ccc3cnc(Nc4cccc(C(=O)N5CCOCC5)c4)nc32)C1 [Example 65],C (C represents a pIC50 value between 6 and 6.7 (IC50 between 1 μM and 200 nM)),B (B represents pKi value between 9 and 10 (Ki between 1 nM and 0.1 nM)),A (A represents a value of 3 or above),E (E represents a pKi value of 7 or below (Ki of 100 nM or above)),E (E represents a pKi value of 7 or below (Ki of 100 nM or above)),E (E represents a pKi value of 7 or below (Ki of 100 nM or above))
C=CC(=O)N1CC(CCn2c(=O)ccc3cnc(Nc4cccc(N5CCCCC5)c4)nc32)C1 [Example 68],C (C represents a pIC50 value between 6 and 6.7 (IC50 between 1 μM and 200 nM)),B (B represents pKi value between 9 and 10 (Ki between 1 nM and 0.1 nM)),A (A represents a value of 3 or above),E (E represents a pKi value of 7 or below (Ki of 100 nM or above)),E (E represents a pKi value of 7 or below (Ki of 100 nM or above)),E (E represents a pKi value of 7 or below (Ki of 100 nM or above))
C=CC(=O)N1CC(CCn2c(=O)ccc3cnc(Nc4ccc(-n5ccnc5)cc4)nc32)C1 [Example 73],C (C represents a pIC50 value between 6 and 6.7 (IC50 between 1 μM and 200 nM)),C (C represents a pKi value between 8 and 9 (Ki between 10 nM and 1 nM)),B (B represents a value of 2.5 to 3),E (E represents a pKi value of 7 or below (Ki of 100 nM or above)),E (E represents a pKi value of 7 or below (Ki of 100 nM or above)),E (E represents a pKi value of 7 or below (Ki of 100 nM or above))
C=CC(=O)N1CC(CCn2c(=O)ccc3cnc(Nc4ccc(N5CCN(C(=O)C(C)C)CC5)cc4)nc32)C1 [Example 75],C (C represents a pIC50 value between 6 and 6.7 (IC50 between 1 μM and 200 nM)),C (C represents a pKi value between 8 and 9 (Ki between 10 nM and 1 nM)),B (B represents a value of 2.5 to 3),E (E represents a pKi value of 7 or below (Ki of 100 nM or above)),E (E represents a pKi value of 7 or below (Ki of 100 nM or above)),E (E represents a pKi value of 7 or below (Ki of 100 nM or above))
C=CC(=O)N1CC(CCn2c(=O)ccc3cnc(Nc4ccc5[nH]cnc5c4)nc32)C1 [Example 84],C (C represents a pIC50 value between 6 and 6.7 (IC50 between 1 μM and 200 nM)),B (B represents pKi value between 9 and 10 (Ki between 1 nM and 0.1 nM)),A (A represents a value of 3 or above),E (E represents a pKi value of 7 or below (Ki of 100 nM or above)),E (E represents a pKi value of 7 or below (Ki of 100 nM or above)),E (E represents a pKi value of 7 or below (Ki of 100 nM or above))
C=CC(=O)N1CCN(CCn2c(=O)ccc3cnc(Nc4ccc(C5CCN(C)CC5)cc4)nc32)CC1 [Example 87],A (A represents a pIC50 value≥7.5 (IC50≤32 nM)),B (B represents pKi value between 9 and 10 (Ki between 1 nM and 0.1 nM)),A (A represents a value of 3 or above),E (E represents a pKi value of 7 or below (Ki of 100 nM or above)),E (E represents a pKi value of 7 or below (Ki of 100 nM or above)),E (E represents a pKi value of 7 or below (Ki of 100 nM or above))
C=CC(=O)N1CC(CCn2c(=O)ccc3cnc(Nc4ccc(N5CCN(C(=O)NC)CC5)cc4)nc32)C1 [Example 93],B (B represents a pC50 value between 6.7 (included) and 7.5 (IC50 between 200 nM and 32 nM)),A (A represents a pKi value≥10 (Ki≤0.1 nM)),A (A represents a value of 3 or above),E (E represents a pKi value of 7 or below (Ki of 100 nM or above)),E (E represents a pKi value of 7 or below (Ki of 100 nM or above)),E (E represents a pKi value of 7 or below (Ki of 100 nM or above))
C=CC(=O)N1CC(CCn2c(=O)ccc3cnc(Nc4ccc(N5CCN(S(=O)(=O)N(C)C)CC5)cc4)nc32)C1 [Example 97],A (A represents a pIC50 value≥7.5 (IC50≤32 nM)),B (B represents pKi value between 9 and 10 (Ki between 1 nM and 0.1 nM)),A (A represents a value of 3 or above),E (E represents a pKi value of 7 or below (Ki of 100 nM or above)),E (E represents a pKi value of 7 or below (Ki of 100 nM or above)),E (E represents a pKi value of 7 or below (Ki of 100 nM or above))
